Measured values as given in patent publication US9764046B2, “Labeling composition for intraocular tissue, labeling method of intraocular tissue, and screening method” (CANON KABUSHIKI KAISHA, priority 2008, dated 2017).
Values joined by “and” are separate entries in the source; they are usually repeats but may differ in a detail not shown here. Equal entries are not always repeated.

Columns and labels:
[1] = tested on: intraocular tissue (retinal tissue incl. photoreceptor cell layer, vitreous body) of Zebrafish 7-day-old embryo; experiment: Staining of intraocular tissue of Zebrafish fry by exposure to staining liquid, ocular tissue section observed by confocal microscope; assay type: in vivo; settings: Zebrafish 7 dpf fry, 1 μg/mL, 1 hour exposure, fixed ocular section
[2] = Excitation and fluorescence wavelengths by fluorescence spectrometer FL4500; assay type: physicochemical; settings: aqueous solution: 10 mg/mL DMSO solution diluted to 1/500 with purified water (Examples 1 to 94); in nm (unit assumed)

| Compound | Staining ability [1] | λem (fluorescence wavelength) [2] | λex (excitation wavelength) [2] | Stained site [1] |
| --- | --- | --- | --- | --- |
| O=C(O)CN1C(=O)/C(=C\c2cc(Br)c3c(c2)C2CCCC2N3Cc2ccccc2)SC1=S (stereo not shown) [Compound 56] | ++ | 606 | 486 | – |
| CCCCCCCCN1C(=O)S/C(=c2/s/c(=C/c3ccc4c(c3)C3CCCC3N4c3ccc(C=C(c4ccccc4)c4ccccc4)cc3)c(=O)n2CC(=O)OCC)C1=O (stereo not shown) [Compound 57] | ++ | 671 | 590 | – |
| CCCCCCCCN1C(=O)S/C(=c2/s/c(=C/c3ccc4c(c3)C3CCCC3N4c3ccc(OC)cc3)c(=O)n2CC(=O)OCC)C1=O (stereo not shown) [Compound 58] | ++ | 676 | 546 | – |
| CCCCCCCCN1C(=O)S/C(=c2/s/c(=C/c3ccc4c(c3)C3CCCC3N4c3ccccc3)c(=O)n2CC(=O)OCC)C1=O (stereo not shown) [Compound 59] | ++ | 625 | 581 | – |
| COc1ccc(N2c3ccc(/C=C/c4sc5ccccc5[n+]4CC(=O)O)cc3C3CCCC32)cc1.[Br-] (stereo not shown) [Compound 60] | ++ | 677 | 560 | 2 |
| O=C(O)C[n+]1c(/C=C/c2ccc3c(c2)C2CCCC2N3c2ccccc2)sc2ccccc21.[Br-] (stereo not shown) [Compound 61] | ++ | 636 | 545 | – |
| O=C(O)C[n+]1c(/C=C/c2ccc3c(c2)C2CCCC2N3c2ccc(C=C(c3ccccc3)c3ccccc3)cc2)sc2ccccc21.[Br-] (stereo not shown) [Compound 62] | ++ | 675 | 610 | 2 |
| O=C(O)C[n+]1c(/C=C/c2ccc3c(c2)C2CCCC2N3Cc2ccccc2)sc2ccccc21.[Br-] (stereo not shown) [Compound 63] | ++ | 611 | 566 | 1 |
| COc1ccc2cc(N3c4ccc(/C=C/c5sc6ccccc6[n+]5CC(=O)O)cc4C4CCCC43)ccc2c1.[Br-] (stereo not shown) [Compound 64] | ++ | 516 | 401 | 2 |
| O=C(O)C[n+]1c(/C=C/c2ccc3c(c2)C2CCCC2N3c2ccc(C=C(c3ccccc3)c3ccccc3)cc2)oc2ccccc21.[Br-] (stereo not shown) [Compound 65] | ++ | 657 | 570 | 1 |
| CCN1C(=O)/C(=c2\s/c(=C/c3ccc4c(c3)C3CCCC3N4c3ccc(SC)cc3)c(=O)n2CC(=O)O)SC1=S (stereo not shown) [Compound 67] | +++ | 699 | 570 | – |
| CCCCN1C(=O)/C(=c2\s/c(=C/c3ccc4c(c3)C3CCCC3N4c3ccc(OC)cc3)c(=O)n2CC(=O)OCC)SC1=S (stereo not shown) [Compound 68] | ++ | 527 | 450 | – |
| CCCCN1C(=O)/C(=c2\s/c(=C/c3ccc4c(c3)C3CCCC3N4c3ccccc3)c(=O)n2CC(=O)OCC)SC1=S (stereo not shown) [Compound 69] | ++ | 609 | 653 | – |
| COc1ccc(N2c3ccc(/C=C/C4=[N+](CCC(=O)O)c5ccccc5C4(C)C)cc3C3CCCC32)cc1.[I-] (stereo not shown) [Compound 71] | ++ | 671 | 592 | – |
| CCN1C(=O)/C(=c2\s/c(=C/c3cc(Br)c4c(c3)C3CCCC3N4Cc3ccccc3)c(=O)n2CC(=O)O)SC1=S (stereo not shown) [Compound 73] | ++ | 649 | 548 | – |
| COc1ccc(N2c3ccc(/C=C/C4=[N+](C)c5ccccc5C4(C)C)cc3C3CCCC32)cc1.[Br-] (stereo not shown) [Compound 74] | ++ | 669 | 614 | 1 |
| COc1ccc(N2c3ccc(/C=C/C4=[N+](CCC(=O)O)c5ccc6ccccc6c5C4(C)C)cc3C3CCCC32)cc1.[I-] (stereo not shown) [Compound 75] | ++ | 683 | 619 | 1 |

| Compound | Staining ability [1] | λem (fluorescence wavelength) [2] | λex (excitation wavelength) [2] | Stained site [1] |
| --- | --- | --- | --- | --- |
| CC1(C)C(/C=C/c2ccc3c(c2)C2CCCC2N3c2ccc(C=C(c3ccccc3)c3ccccc3)cc2)=[N+](CCC(=O)O)c2ccc3ccccc3c21 (stereo not shown) [Compound 76] | ++ | 724 | 674 | – |
| COc1ccc(N2c3ccc(/C=C/c4sc5ccccc5[n+]4CCC(=O)O)cc3C3CCCC32)cc1 (stereo not shown) [Compound 77] | ++ | 668 | 583 | – |
| O=C(O)CC[n+]1c(/C=C/c2ccc3c(c2)C2CCCC2N3c2ccc(C=C(c3ccccc3)c3ccccc3)cc2)sc2ccccc21.[I-] (stereo not shown) [Compound 78] | ++ | 726 | 598 | 1 |
| CCN1C(=S)S/C(=c2/s/c(=C/c3ccc4c(c3)C3CCCC3N4c3ccc(C=C(c4ccccc4)c4ccccc4)cc3)c(=O)n2CC(=O)O)C1=S (stereo not shown) [Compound 79] | ++ | 702 | 567 | – |
| CCN1C(=O)/C(=c2/s/c(=C/c3ccc4c(c3)C3CCCC3N4c3ccc(C=C(c4ccccc4)c4ccccc4)cc3)c(=O)n2CC(=O)O)SC1=S (stereo not shown) [Compound 80] | ++ | 673 | 551 | – |
| CC[n+]1c(C=c2sc(=Cc3ccc4c(c3)C3CCCC3N4c3ccc(C=C(c4ccccc4)c4ccccc4)cc3)c(=O)n2-c2ccccc2)sc2ccccc21.[Br-] (stereo not shown) [Compound 82] | +++ | 721 | 591 | 2 |
| COc1ccc(N2c3ccc(/C=C/c4sc5c6ccccc6ccc5[n+]4CCC(=O)O)cc3C3CCCC32)cc1.[I-] (stereo not shown) [Compound 83] | ++ | 682 | 605 | 2 |
| CCOC(=O)Cn1c(=Cc2sc3ccccc3[n+]2C)sc(=Cc2ccc3c(c2)C2CCCC2N3c2ccc(C=C(c3ccccc3)c3ccccc3)cc2)c1=O.[Br-] (stereo not shown) [Compound 84] | ++ | 718 | 599 | 2 |
| CC[n+]1c(C=C2SCC(=O)N2c2ccccc2)sc2ccccc21.[Br-] [Compound 85] | ++ | 503 | 353 | 2 |
| CCN1C(=O)/C(=c2\s/c(=C/c3ccc4c(c3)C3CCCC3N4CC)c(=O)n2CC)SC1=S (stereo not shown) [Compound 86] | ++ | 671 | 623 | – |
| CCCCNc1ccc2c3c(cccc13)C(=O)N(CCCC)C2=O [Compound 87] | ++ | 551 | 466 | – |
| CCOC(=O)c1cc(/C=C/C=C/c2sc3ccccc3[n+]2CC(=O)O)c2cccccc1-2.[Br-] [Compound 88] | ++ | 503 | 450 | 1 |
| CC/N=c1\cc2oc3cc(NCC)c(C)cc3c(-c3ccccc3C(=O)CC)c-2cc1C [Compound 90] | ++ | 550 | 528 | – |
| CCN(CC)c1ccc2c(-c3ccc(S(=O)(=O)NCCC(=O)O)cc3S(=O)(=O)O)c3ccc(=[N+](CC)CC)cc-3oc2c1.[Na+] [Compound 95] | ++ | 578 and 590 | 509 and 528 | – |
| C=CCN1C(=O)/C(=c2\s/c(=C/c3ccc4c(c3)C3CCCC3N4c3ccc(OC)cc3)c(=O)n2CC(=O)O)SC1=S (stereo not shown) [Compound 97] | ∘ | 680 | 530 | – |
| C=CCN1C(=O)/C(=C2\S/C(=C/c3ccc4c(c3)C3CCCC3N4c3ccccc3)CN2CC(=O)O)SC1=S (stereo not shown) [Compound 98] | ∘ | 690 | 510 | – |
